Source: article PMC6199744, “Development of Chemical Proteomics for the Folateome and Analysis of the Kinetoplastid Folateome” (ACS Infectious Diseases, 2018)
Like-named read-outs stand apart in the source and are kept apart here.

Columns and labels:
Assay type in all cases: binding
[1] = biological target: T1, HeLa cell extract proteins (Homo sapiens, UniProt Q15370)
T1 construct: endogenous in cells; host or cells: HeLa cell extract

[2] = biological target: T2, HeLa cell extract proteins (Homo sapiens, UniProt Q15386)
T2 construct: endogenous in cells; host or cells: HeLa cell extract
T2 sequence (Q15386 1-1083): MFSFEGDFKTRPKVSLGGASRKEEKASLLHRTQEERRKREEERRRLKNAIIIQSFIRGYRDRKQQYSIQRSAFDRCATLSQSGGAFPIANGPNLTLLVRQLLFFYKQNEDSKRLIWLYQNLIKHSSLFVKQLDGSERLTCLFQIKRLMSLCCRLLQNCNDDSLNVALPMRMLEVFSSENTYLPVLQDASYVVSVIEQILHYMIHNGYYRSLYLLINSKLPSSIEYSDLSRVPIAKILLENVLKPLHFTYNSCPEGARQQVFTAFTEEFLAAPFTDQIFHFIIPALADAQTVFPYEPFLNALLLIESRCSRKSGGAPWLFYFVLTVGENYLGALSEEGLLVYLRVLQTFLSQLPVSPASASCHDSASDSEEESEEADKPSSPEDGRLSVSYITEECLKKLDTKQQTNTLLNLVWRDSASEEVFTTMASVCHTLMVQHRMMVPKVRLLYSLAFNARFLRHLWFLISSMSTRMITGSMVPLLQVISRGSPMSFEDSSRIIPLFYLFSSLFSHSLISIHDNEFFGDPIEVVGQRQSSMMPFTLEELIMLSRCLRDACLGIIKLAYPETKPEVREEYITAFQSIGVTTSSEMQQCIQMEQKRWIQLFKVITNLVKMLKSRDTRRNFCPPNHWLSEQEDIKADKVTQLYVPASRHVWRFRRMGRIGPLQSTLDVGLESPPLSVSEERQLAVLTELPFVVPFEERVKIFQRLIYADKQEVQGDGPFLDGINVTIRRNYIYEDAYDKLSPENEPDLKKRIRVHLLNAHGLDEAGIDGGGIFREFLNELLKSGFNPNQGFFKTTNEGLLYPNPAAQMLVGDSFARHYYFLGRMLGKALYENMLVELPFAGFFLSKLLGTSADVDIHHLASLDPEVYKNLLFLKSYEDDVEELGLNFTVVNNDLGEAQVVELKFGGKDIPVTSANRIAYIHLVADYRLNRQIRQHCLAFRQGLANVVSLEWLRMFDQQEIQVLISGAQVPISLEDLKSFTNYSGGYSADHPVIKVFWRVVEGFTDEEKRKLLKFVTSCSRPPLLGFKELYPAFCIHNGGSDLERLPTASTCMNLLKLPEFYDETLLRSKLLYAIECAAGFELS

[3] = biological target: T3, HeLa cell extract proteins (Homo sapiens, UniProt Q9BWD1)
T3 construct: endogenous in cells; host or cells: HeLa cell extract
T3 sequence (Q9BWD1 whole entry): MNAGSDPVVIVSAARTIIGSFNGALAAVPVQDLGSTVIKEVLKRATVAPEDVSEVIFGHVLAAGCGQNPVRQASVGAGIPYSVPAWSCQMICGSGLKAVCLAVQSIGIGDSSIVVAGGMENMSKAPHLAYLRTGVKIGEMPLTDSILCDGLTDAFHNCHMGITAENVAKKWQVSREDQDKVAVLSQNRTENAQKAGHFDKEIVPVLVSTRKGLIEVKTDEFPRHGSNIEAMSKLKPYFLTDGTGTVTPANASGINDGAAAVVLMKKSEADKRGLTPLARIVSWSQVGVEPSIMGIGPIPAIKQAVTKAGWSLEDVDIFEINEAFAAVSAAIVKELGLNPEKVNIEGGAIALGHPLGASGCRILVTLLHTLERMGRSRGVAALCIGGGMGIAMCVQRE

[4] = biological target: T4, HeLa cell extract proteins (Homo sapiens, UniProt Q9P2J5)
T4 construct: endogenous in cells; host or cells: HeLa cell extract
T4 sequence (Q9P2J5 whole entry): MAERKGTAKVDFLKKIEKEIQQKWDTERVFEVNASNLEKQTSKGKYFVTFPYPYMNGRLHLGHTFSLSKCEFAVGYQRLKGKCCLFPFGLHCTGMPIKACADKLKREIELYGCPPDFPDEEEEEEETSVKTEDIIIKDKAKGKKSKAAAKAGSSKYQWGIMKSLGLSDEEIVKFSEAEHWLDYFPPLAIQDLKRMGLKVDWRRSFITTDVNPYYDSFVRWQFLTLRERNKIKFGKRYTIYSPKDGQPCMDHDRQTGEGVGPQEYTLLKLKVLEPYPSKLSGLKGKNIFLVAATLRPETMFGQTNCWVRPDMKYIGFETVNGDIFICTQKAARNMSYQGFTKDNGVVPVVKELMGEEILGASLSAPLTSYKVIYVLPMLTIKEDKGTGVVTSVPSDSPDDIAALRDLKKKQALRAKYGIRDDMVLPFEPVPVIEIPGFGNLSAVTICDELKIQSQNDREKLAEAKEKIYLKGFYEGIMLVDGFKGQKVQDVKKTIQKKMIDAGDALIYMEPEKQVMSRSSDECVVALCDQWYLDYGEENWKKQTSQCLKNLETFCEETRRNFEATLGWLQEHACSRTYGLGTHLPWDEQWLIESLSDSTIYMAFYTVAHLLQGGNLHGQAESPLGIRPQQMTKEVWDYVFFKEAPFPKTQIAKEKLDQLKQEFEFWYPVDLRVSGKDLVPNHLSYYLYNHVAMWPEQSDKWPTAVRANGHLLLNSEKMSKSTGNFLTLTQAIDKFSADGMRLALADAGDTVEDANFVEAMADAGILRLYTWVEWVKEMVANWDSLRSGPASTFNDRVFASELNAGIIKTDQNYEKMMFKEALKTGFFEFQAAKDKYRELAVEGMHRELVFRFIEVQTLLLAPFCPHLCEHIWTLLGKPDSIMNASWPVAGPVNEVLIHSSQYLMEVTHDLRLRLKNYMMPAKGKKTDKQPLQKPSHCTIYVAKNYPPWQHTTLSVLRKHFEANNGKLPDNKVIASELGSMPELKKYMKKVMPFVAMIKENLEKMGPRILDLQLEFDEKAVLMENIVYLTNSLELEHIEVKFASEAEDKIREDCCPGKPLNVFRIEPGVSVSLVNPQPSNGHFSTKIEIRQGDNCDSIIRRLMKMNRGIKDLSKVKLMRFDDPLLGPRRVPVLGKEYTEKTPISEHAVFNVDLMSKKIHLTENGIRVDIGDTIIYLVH

[5] = biological target: T5, HeLa cell extract proteins (Homo sapiens, UniProt P46782); conditions: protein RPS5; HeLa
T5 construct: endogenous in cells; host or cells: HeLa cell extract

[6] = biological target: T6, HeLa cell extract proteins (Homo sapiens, UniProt Q05639); conditions: protein EEF1A2; HeLa
T6 construct: endogenous in cells; host or cells: HeLa cell extract
T6 sequence (Q05639 1-463): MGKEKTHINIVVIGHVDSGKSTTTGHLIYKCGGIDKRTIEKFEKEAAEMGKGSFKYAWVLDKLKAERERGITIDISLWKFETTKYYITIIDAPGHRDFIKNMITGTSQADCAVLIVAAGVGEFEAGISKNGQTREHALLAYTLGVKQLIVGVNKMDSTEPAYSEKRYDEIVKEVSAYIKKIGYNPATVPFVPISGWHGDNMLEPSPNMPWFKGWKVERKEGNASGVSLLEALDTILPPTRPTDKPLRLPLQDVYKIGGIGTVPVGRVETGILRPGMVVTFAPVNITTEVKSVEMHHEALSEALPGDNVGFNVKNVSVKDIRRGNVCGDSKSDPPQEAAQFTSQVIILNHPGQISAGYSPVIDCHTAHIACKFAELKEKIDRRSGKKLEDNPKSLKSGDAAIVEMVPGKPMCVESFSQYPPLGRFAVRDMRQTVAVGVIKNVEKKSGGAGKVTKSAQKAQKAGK

[7] = biological target: T7, HeLa cell extract proteins (Homo sapiens, UniProt Q9UIA9); conditions: HeLa; protein XPO7
T7 construct: endogenous in cells; host or cells: HeLa cell extract
T7 sequence (Q9UIA9 1-1087): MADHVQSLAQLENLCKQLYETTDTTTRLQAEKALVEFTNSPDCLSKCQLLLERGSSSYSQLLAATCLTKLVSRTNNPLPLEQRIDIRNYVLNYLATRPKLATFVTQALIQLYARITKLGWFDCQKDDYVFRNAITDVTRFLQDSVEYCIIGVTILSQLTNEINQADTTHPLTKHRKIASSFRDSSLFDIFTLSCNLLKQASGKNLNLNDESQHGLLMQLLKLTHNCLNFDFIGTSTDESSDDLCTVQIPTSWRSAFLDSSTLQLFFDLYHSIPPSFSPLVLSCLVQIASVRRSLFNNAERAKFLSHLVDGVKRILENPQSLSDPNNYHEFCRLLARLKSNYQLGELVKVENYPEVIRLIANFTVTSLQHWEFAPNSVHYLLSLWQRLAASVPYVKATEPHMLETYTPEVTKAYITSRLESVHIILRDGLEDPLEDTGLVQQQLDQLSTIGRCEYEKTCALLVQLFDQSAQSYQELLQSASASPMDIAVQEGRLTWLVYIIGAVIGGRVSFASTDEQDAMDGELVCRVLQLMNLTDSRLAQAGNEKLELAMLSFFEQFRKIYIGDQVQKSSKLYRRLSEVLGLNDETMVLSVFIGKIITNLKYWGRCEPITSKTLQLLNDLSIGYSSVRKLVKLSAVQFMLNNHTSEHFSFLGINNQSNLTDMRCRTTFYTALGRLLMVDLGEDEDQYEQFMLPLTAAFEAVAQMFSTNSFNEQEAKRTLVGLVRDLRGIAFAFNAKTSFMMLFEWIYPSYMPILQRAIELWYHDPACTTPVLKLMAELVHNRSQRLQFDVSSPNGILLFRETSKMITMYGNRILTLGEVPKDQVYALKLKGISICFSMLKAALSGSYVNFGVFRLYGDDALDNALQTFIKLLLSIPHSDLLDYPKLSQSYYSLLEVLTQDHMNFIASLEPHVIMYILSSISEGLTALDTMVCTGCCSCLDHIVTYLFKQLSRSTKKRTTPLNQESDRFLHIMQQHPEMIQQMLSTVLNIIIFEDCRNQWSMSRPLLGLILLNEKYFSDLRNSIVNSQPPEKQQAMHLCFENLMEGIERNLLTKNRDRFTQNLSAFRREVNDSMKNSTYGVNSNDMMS

T1 sequence (Q15370 whole entry): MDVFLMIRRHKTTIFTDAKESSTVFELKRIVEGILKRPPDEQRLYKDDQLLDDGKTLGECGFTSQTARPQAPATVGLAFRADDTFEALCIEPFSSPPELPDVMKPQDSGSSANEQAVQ

SMILES	fold changes relative to vehicle control ([1]; protein TCEB2, HeLa)	fold changes relative to vehicle control ([2]; HeLa, protein UBE3C)	fold changes relative to vehicle control ([3]; HeLa, protein ACAT2)	fold changes relative to vehicle control ([4]; HeLa, protein LARS)	fold changes relative to vehicle control [5]	fold changes relative to vehicle control [6]	fold changes relative to vehicle control [7]	other results
Nc1nc2c(c(=O)[nH]1)N(C=O)C(CNc1ccc(C(=O)N[C@@H](CCC(=O)O)C(=O)O)cc1)CN2 (stereo partly shown) [LEU, leucovorin]	0.9	0.91	1.06	1.04				
NCCCNc1ccc(C(=O)NC(CCC(=O)O)C(=O)O)cc1 (stereo not shown) [compound 7]	1.1	1.04	1.12	1.13				
CCCCCCOc1cccc(Cc2cnc(N)nc2N)c1 [compound 2]					1.1	2.29	1.28	
CCCCCCOc1ccc(Cc2cnc(N)nc2N)cc1 [compound 1]					1.04	1.09	0.88	
Nc1nc2cccc(-c3ccccc3)c2n1Cc1ccc(Cl)c(Cl)c1 [compound 3]					1.01	0.82	0.98	
NCCOCCOCC(=O)Nc1nc2ncc(CNc3ccc(C(=O)NC(CCC(=O)O)C(=O)O)cc3)nc2c(=O)[nH]1 (stereo not shown) [compound 6]	1.43	1.01	1.17	1				
Nc1nc2[nH]cc(CCc3ccc(C(=O)N[C@@H](CCC(=O)O)C(=O)O)cc3)c2c(=O)[nH]1 [PTX, pemetrexed]								fold changes relative to vehicle control [1]: 1.02; fold changes relative to vehicle control [2]: 0.96; fold changes relative to vehicle control [3]: 0.82; fold changes relative to vehicle control [4]: 1.11
